The test system of experiment [1] is A549. Briefly: Antiproliferative activity against human A549 cells assessed as cell survival rate at 5 uM incubated for 48 hrs by CCK8 assay. The class given is functional. The conditions noted are these: A549, 48 h, read-out: Survival.
The target of experiment [2] is Mothers against decapentaplegic homolog 2 (Homo sapiens) (UniProt Q15796). Briefly: Inhibition of TGFbeta1-induced Smad2 phosphorylation in human A549 cells at 15 and 20 uM pre-treated for 2 hrs before TGFbeta1 stimulation for 48 hrs by Western blot method. The class given is cell-based. For orientation: Immunoblotting shows a protein as a band on a membrane.
In experiment [3] the test system is A549. Briefly: Antiproliferative activity against human A549 cells assessed as cell survival rate at 15 uM incubated for 48 hrs by CCK8 assay. The class given is functional. The conditions noted are these: A549, 48 h, read-out: Survival. In general terms: Tetrazolium assays rely on reduction of a dye to a coloured formazan, in cell work by metabolically active cells.

Experiment [4] concerns A549. Briefly: Inhibition of TGFbeta1-induced cell migration of human A549 cells at 15 and 20 uM incubated for 48 hrs by wound healing assay. The class given is functional, cell-based.
The test system of experiment [5] is A549. The experiment in a line: Inhibition of TGFbeta1-induced anoikis resistance in human A549 cells grown on poly-HEMA-coated tissue culture plates at 15 and 20 uM pre-treated for 2 hrs before TGFbeta1 stimulation for 48 hrs. The class given is functional, cell-based.
Experiment [6] concerns A549. Briefly: Inhibition of TGFbeta1-induced reduction in E-cadherin expression in human A549 cells assessed as suppresion of mesenchymal phenotype at 15 and 20 uM pre-treated for 2 hrs before TGFbeta1 stimulation for 48 hrs by Western blot method. The format is functional, cell-based.
In experiment [7] the test system is A549. Briefly: Antiproliferative activity against human A549 cells assessed as inhibition of cell growth at 30 uM incubated for 48 hrs by CCK8 assay. The class given is functional, cell-based.
In experiment [8] the test system is A549. The experiment in a line: Antiproliferative activity against human A549 cells assessed as cell survival rate at 20 uM incubated for 48 hrs by CCK8 assay. The class given is functional. The conditions noted are these: A549, 48 h, read-out: Survival.
For experiment [9], the system named is A549. Briefly: Inhibition of TGFbeta1-induced reduction in E-cadherin expression in human A549 cells at 15 and 20 uM pre-treated for 2 hrs before TGFbeta1 stimulation for 48 hrs by Western blot method. The format is functional, cell-based.
Experiment [10] deals with A549. Briefly: Antiproliferative activity against human A549 cells assessed as cell survival rate at 2.5 uM incubated for 48 hrs by CCK8 assay. The class given is functional. As to conditions: A549, 48 h, read-out: Survival.
The test system of experiment [11] is A549. The experiment in a line: Inhibition of TGFbeta1-induced anoikis resistance in human A549 cells grown on poly-HEMA-coated tissue culture plates assessed reduction in PARP cleavage at 15 and 20 uM pre-treated for 2 hrs before TGFbeta1 stimulation for 48 hrs by Western blot method. The format is functional, cell-based.
The subject of experiment [12] is A549. The experiment in a line: Inhibition of TGFbeta1-induced increase in Snail protein expression in human A549 cells at 15 and 20 uM pre-treated for 2 hrs before TGFbeta1 stimulation for 48 hrs by Western blot method. The format is functional, cell-based.
Experiment [13] deals with A549. Briefly: Inhibition of TGFbeta1-induced increase in Snail gene expression in human A549 cells at 15 and 20 uM pre-treated for 2 hrs before TGFbeta1 stimulation for 48 hrs by qRT-PCR method. The format is functional, cell-based. For orientation: Real-time PCR tracks product formation cycle by cycle.
In experiment [14] the test system is A549. The experiment in a line: Inhibition of TGFbeta1-induced increase in N-cadherin expression in human A549 cells at 15 and 20 uM pre-treated for 2 hrs before TGFbeta1 stimulation for 48 hrs by Western blot method. The class given is functional, cell-based.
Experiment [15] has as its system A549. The experiment in a line: Antiproliferative activity against human A549 cells assessed as effect on cell proliferation at =< 30 uM incubated for 24 hrs by CCK8 assay. The class given is functional, cell-based.
The test system of experiment [16] is A549. The experiment in a line: Antiproliferative activity against human A549 cells assessed as cell survival rate at 10 uM incubated for 48 hrs by CCK8 assay. The class given is functional. The conditions noted are these: A549, 48 h, read-out: Survival.
Experiment [17] deals with A549. The experiment in a line: Inhibition of TGFbeta1-induced increase in vimentin expression in human A549 cells at 15 and 20 uM pre-treated for 2 hrs before TGFbeta1 stimulation for 48 hrs by Western blot method. The class given is functional, cell-based.
For experiment [18], the system named is A549. Briefly: Inhibition of TGFbeta1-induced cell invasion of human A549 cells at 15 and 20 uM incubated for 48 hrs by matrigel cell invasion assay. The class given is functional, cell-based.
Experiment [19] has as its system A549. The experiment in a line: Inhibition of TGFbeta1-induced epithelial-mesenchymal transition in human A549 cells assessed as suppression of mesenchymal phenotype at 15 and 20 uM pre-treated for 2 hrs before TGFbeta1 stimulation for 48 hrs. The format is functional, cell-based.
For experiment [20], the system named is A549. The experiment in a line: Inhibition of TGFbeta1-induced anoikis resistance in human A549 cells grown on poly-HEMA-coated tissue culture plates assessed reduction in cell proliferation at 15 and 20 uM pre-treated for 2 hrs before TGFbeta1 stimulation for 48 hrs by SRB assay. The class given is functional, cell-based.

Calls of active or inactive are those of the source. No cut-off for these calls is given here.

Sequence of Mothers against decapentaplegic homolog 2 (Homo sapiens) (Q15796 whole entry): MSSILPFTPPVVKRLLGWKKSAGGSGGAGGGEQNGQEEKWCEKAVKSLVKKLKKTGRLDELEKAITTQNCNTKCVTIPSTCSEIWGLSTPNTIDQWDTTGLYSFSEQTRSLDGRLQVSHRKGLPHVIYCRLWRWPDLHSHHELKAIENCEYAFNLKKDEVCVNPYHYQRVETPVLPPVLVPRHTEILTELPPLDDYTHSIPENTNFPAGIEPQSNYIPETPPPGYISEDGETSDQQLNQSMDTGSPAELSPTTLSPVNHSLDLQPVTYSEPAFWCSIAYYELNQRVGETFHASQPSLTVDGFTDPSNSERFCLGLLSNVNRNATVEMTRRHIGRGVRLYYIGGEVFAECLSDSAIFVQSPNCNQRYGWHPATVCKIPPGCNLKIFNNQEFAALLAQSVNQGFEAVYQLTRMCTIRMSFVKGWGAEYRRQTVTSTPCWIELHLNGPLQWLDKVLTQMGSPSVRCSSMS

As for `O=C1O[C@H]2[C@@H]3OC(=O)c4cc(O)c(O)c(O)c4-c4c(cc(O)c(O)c4O)C(=O)OC[C@H]2O[C@@H](OC(=O)c2cc(O)c(O)c(O)c2)[C@@H]3OC(=O)c2cc(O)c(O)c3c2[C@@H]2C1=CC(=O)[C@](O)(O3)C2(O)O` [GERANIIN], the viability at 5 µM in the experiment on A549 [1] is greater than 90%. The inhibition entry (in [2]; with A549 [5]; with A549 [6]; in the experiment on A549 [9]; in the experiment on A549 [11]; with A549 [14]) was “Active” in each case. Also, the inhibition result with A549 [17], in the experiment with A549 [18] and in the experiment with A549 [19] was “Active” throughout. The viability at 15 µM in the experiment on A549 [3] was greater than 90%. Besides, the inhibition entry in the experiment with A549 [4], in the experiment on A549 [12], with A549 [13] and in the experiment on A549 [20] was “Dose-dependent effect” each time. Also, the “growth inhibition (GI)” value with A549 [7] was “Active”. In addition, in the experiment on A549 [8], the viability at 20 µM was greater than 90%. The viability at 2.5 µM in the experiment on A549 [10] is greater than 90%. Also, the result in the experiment on A549 [15] was inactive. The viability at 10 µM in the experiment on A549 [16] was greater than 90%.

The values are drawn from ChEMBL document CHEMBL3603758, “Geraniin inhibits TGF-β1-induced epithelial-mesenchymal transition and suppresses A549 lung cancer migration, invasion and anoikis resistance” (2015).
